Source: US6525001B1, “Substituted pyrimidine and pyridine herbicides” (Mid-American Commercialization Corporation, priority 1997, dated 2003)

What was measured:
Type in all cases: in vivo
Set-up in all cases: key: 0 is no effect; 10 is complete control
[1] = test system: duck salad (Heteranthera limosa); assay: Test B flood test
Procedure, shortened: (§1)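 Each value is a visual injury score relative to controls, with 10 meaning complete control and 0 no effect. Evaluation took place twelve to sixteen days after the 2-leaf-stage plants were treated and kept in the greenhouse.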

[2] = test system: rice (Oryza sativa); assay: Test B flood test
Procedure, shortened: as §1

[3] = test system: bamyardgrass (Echinochloa crus-galli); assay: Test B flood test
Procedure, shortened: as §1

[4] = test system: smallflower flatsedge (Cyperus difformis); assay: Test B flood test
Procedure, shortened: as §1

[5] = test system: sugar beet (Beta vulgaris); assay: Test B pre-/postemergence
From the text: (§2) Seeds of bedstraw (Galium aparine), blackgrass (Alopecurus myosuroides), broadleaf signalgrass (Brachiaria decumbens), cocklebur (Xanthium strumarium), corn (Zea mays), crabgrass (Digitaria sanguinalis), giant foxtail (Setaria faberii), lambsquarters (Chenopodium album), momingglory (Ipomoea hederacea), pigweed (Amaranthus retroflexus), rape (Brassica napus), soybean (Glycine max), sugar beet (Beta vulgaris), velvetleaf (Abutilon theophrasti), wheat (Triticum aestivum), wild oat (Avena fatua) and purple nutsedge (Cyperus rotundus) tubers were planted and treated preemergence with test chemicals formulated in a non-phytotoxic solvent mixture which included a surfactant.
(§3) At the same time, these crop and weed species were also treated with postemergence applications of test chemicals formulated in the same manner. Plants ranged in height from 2 to 18 cm (1- to 4-leaf stage) for postemergence treatments. Plant species in the flood test consisted of rice (Oryza sativa), smallflower flatsedge (Cyperus difformis), duck salad (Heteranthera limosa) and bamyardgrass (Echinochloa crus-galli) grown to the 2-leaf stage for testing. Treated plants and controls were maintained in a greenhouse for twelve to sixteen days, after which all species were compared to controls and visually evaluated. Plant response ratings, summarized in Table B, are based on a scale of 0 to 10 where 0 is no effect and 10 is complete control. A dash (−) response means no test result.

[6] = test system: corn (Zea mays); assay: Test B pre-/postemergence; settings: for Corn plant response rating: Preemergence
From the text: as §2, §3

[7] = test system: pigweed (Amaranthus retroflexus); assay: Test B pre-/postemergence
From the text: as §2, §3

[8] = test system: wheat (Triticum aestivum); assay: Test B pre-/postemergence
From the text: as §2, §3

[9] = test system: cocklebur (Xanthium strumarium); assay: Test B pre-/postemergence; settings: for Cocklebur plant response rating: Preemergence
From the text: as §2, §3

[10] = test system: purple nutsedge (Cyperus rotundus); assay: Test B pre-/postemergence
From the text: as §2, §3

[11] = test system: velvetleaf (Abutilon theophrasti); assay: Test B pre-/postemergence
From the text: as §2, §3

[12] = test system: giant foxtail (Setaria faberii); assay: Test B pre-/postemergence
From the text: as §2, §3

[13] = test system: soybean (Glycine max); assay: Test B pre-/postemergence
From the text: as §2, §3

[14] = test system: momingglory (Ipomoea hederacea); assay: Test B pre-/postemergence
From the text: as §2, §3

[15] = test system: rape (Brassica napus); assay: Test B pre-/postemergence
From the text: as §2, §3

[16] = test system: wild oat (Avena fatua); assay: Test B pre-/postemergence
From the text: as §2, §3

[17] = test system: bedstraw (Galium aparine); assay: Test B pre-/postemergence; settings: for Bedstraw plant response rating: Preemergence
From the text: as §2, §3

[18] = test system: blackgrass (Alopecurus myosuroides); assay: Test B pre-/postemergence; settings: for Blackgrass plant response rating: Preemergence
From the text: as §2, §3

[19] = test system: crabgrass (Digitaria sanguinalis); assay: Test B pre-/postemergence; settings: for Crabgrass plant response rating: Preemergence
From the text: as §2, §3

[20] = test system: broadleaf signalgrass (Brachiaria decumbens); assay: Test B pre-/postemergence; settings: for B. signalgrass plant response rating: Preemergence
From the text: as §2, §3

[21] = Rate 62 g/ha, Postemergence (flood test)
[22] = Rate 125 g/ha, Postemergence, flood test
[23] = Rate 250 g/ha, Postemergence (flood test species)
[24] = Rate 125 g/ha, Postemergence section (flood test species)
[25] = Rate 250 g/ha, Postemergence (so in the source)

Cc1cnc(-c2ccccc2F)nc1Cc1cccc(C(F)(F)F)c1 [Compound 26]
Plant response rating, Ducksalad [1, 21]: 0 | Plant response rating, Ducksalad [1, 22]: 0 | Plant response rating, Ducksalad [1, 23]: 0 | Plant response rating, Rice [2, 21]: 0 | Rice plant response rating [2, 24]: 0 | Plant response rating, Rice [2, 23]: 0 | Plant response rating, Barnyardgrass [3, 21]: 0 | Plant response rating, Barnyardgrass [3, 22]: 0 | Plant response rating, Barnyardgrass [3, 23]: 2 | Plant response rating, S. Flatsedge [4, 21]: 0 | S. Flatsedge plant response rating [4, 24]: 1 | Plant response rating, S. Flatsedge [4, 23]: 2 | Plant response rating, Sugarbeets ([5]; Rate 62 g/ha, Postemergence): 3 | Sugarbeets plant response rating ([5]; Rate 62 g/ha, Preemergence): 0 | Sugarbeets plant response rating ([5]; Rate 125 g/ha, Postemergence): 8 | Plant response rating, Sugarbeets ([5]; Rate 125 g/ha, Preemergence): 0 | Plant response rating, Sugarbeets ([5]; Rate 250 g/ha, Postemergence): 8 | Plant response rating, Sugarbeets [5, 25]: 0 | Plant response rating, Corn ([6]; Rate 62 g/ha, Postemergence): 1 | Corn plant response rating ([6]; Rate 62 g/ha): 0 | Plant response rating, Corn ([6]; Rate 125 g/ha, Postemergence): 1 | Corn plant response rating ([6]; Rate 125 g/ha): 0 | Plant response rating, Corn ([6]; Rate 250 g/ha, Postemergence): 1 | Plant response rating, Corn [6, 25]: 0 | Plant response rating, Redroot pigweed ([7]; Rate 62 g/ha, Postemergence): 6 | Redroot pigweed plant response rating ([7]; Rate 62 g/ha, Preemergence): 0 | Redroot pigweed plant response rating ([7]; Rate 125 g/ha, Postemergence): 6 | Redroot pigweed plant response rating ([7]; Rate 125 g/ha, Preemergence): 0 | Plant response rating, Redroot pigweed ([7]; Rate 250 g/ha, Postemergence): 8 | Plant response rating, Redroot pigweed [7, 25]: 4 | Plant response rating, Wheat ([8]; Rate 62 g/ha, Postemergence): 0 | Wheat plant response rating ([8]; Rate 62 g/ha, Preemergence): 0 | Wheat plant response rating ([8]; Rate 125 g/ha, Postemergence): 0 | Plant response rating, Wheat ([8]; Rate 125 g/ha, Preemergence): 0 | Plant response rating, Wheat ([8]; Rate 250 g/ha, Postemergence): 0 | Plant response rating, Wheat [8, 25]: 0 | Plant response rating, Cocklebur ([9]; Rate 62 g/ha, Postemergence): 2 | Cocklebur plant response rating ([9]; Rate 62 g/ha): 0 | Plant response rating, Cocklebur ([9]; Rate 125 g/ha, Postemergence): 2 | Cocklebur plant response rating ([9]; Rate 125 g/ha): 0 | Plant response rating, Cocklebur ([9]; Rate 250 g/ha, Postemergence): 3 | Plant response rating, Cocklebur [9, 25]: 0 | Plant response rating, Nutsedge ([10]; Rate 62 g/ha, Postemergence): 0 | Nutsedge plant response rating ([10]; Rate 62 g/ha, Preemergence): 0 | Nutsedge plant response rating ([10]; Rate 125 g/ha, Postemergence): 0 | Nutsedge plant response rating ([10]; Rate 125 g/ha, Preemergence): 0 | Plant response rating, Velvetleaf ([11]; Rate 62 g/ha, Postemergence): 1 | Velvetleaf plant response rating ([11]; Rate 62 g/ha, Preemergence): 0 | Velvetleaf plant response rating ([11]; Rate 125 g/ha, Postemergence): 1 | Plant response rating, Velvetleaf ([11]; Rate 125 g/ha, Preemergence): 0 | Plant response rating, Velvetleaf ([11]; Rate 250 g/ha, Postemergence): 2 | Plant response rating, Velvetleaf [11, 25]: 0 | Plant response rating, Giant foxtail ([12]; Rate 62 g/ha, Postemergence): 1 | Giant foxtail plant response rating ([12]; Rate 62 g/ha, Preemergence): 0 | Giant foxtail plant response rating ([12]; Rate 125 g/ha, Postemergence): 1 | Giant foxtail plant response rating ([12]; Rate 125 g/ha, Preemergence): 1 | Plant response rating, Giant foxtail ([12]; Rate 250 g/ha, Postemergence): 1 | Plant response rating, Giant foxtail [12, 25]: 1 | Plant response rating, Soybean ([13]; Rate 62 g/ha, Postemergence): 3 | Soybean plant response rating ([13]; Rate 62 g/ha, Preemergence): 0 | Soybean plant response rating ([13]; Rate 125 g/ha, Postemergence): 3 | Plant response rating, Soybean ([13]; Rate 125 g/ha, Preemergence): 0 | Plant response rating, Soybean ([13]; Rate 250 g/ha, Postemergence): 5 | Plant response rating, Soybean [13, 25]: 0 | Plant response rating, Morningglory ([14]; Rate 62 g/ha, Postemergence): 3 | Morningglory plant response rating ([14]; Rate 62 g/ha, Preemergence): 0 | Morningglory plant response rating ([14]; Rate 125 g/ha, Postemergence): 3 | Morningglory plant response rating ([14]; Rate 125 g/ha, Preemergence): 0 | Plant response rating, Morningglory ([14]; Rate 250 g/ha, Postemergence): 3 | Plant response rating, Morningglory [14, 25]: 0 | Plant response rating, Rape ([15]; Rate 62 g/ha, Postemergence): 3 | Rape plant response rating ([15]; Rate 62 g/ha, Preemergence): 0 | Rape plant response rating ([15]; Rate 125 g/ha, Postemergence): 6 | Rape plant response rating ([15]; Rate 125 g/ha, Preemergence): 0 | Plant response rating, Rape ([15]; Rate 250 g/ha, Postemergence): 6 | Plant response rating, Rape [15, 25]: 0 | Plant response rating, Wild oats ([16]; Rate 62 g/ha, Postemergence): 0 | Wild oats plant response rating ([16]; Rate 62 g/ha, Preemergence): 0 | Wild oats plant response rating ([16]; Rate 125 g/ha, Postemergence): 0 | Plant response rating, Wild oats ([16]; Rate 125 g/ha, Preemergence): 0 | Plant response rating, Wild oats ([16]; Rate 250 g/ha, Postemergence): 0 | Plant response rating, Wild oats [16, 25]: 0 | Plant response rating, Bedstraw ([17]; Rate 62 g/ha, Postemergence): 1 | Bedstraw plant response rating ([17]; Rate 62 g/ha): 0 | Plant response rating, Bedstraw ([17]; Rate 125 g/ha, Postemergence): 3 | Bedstraw plant response rating ([17]; Rate 125 g/ha): 0 | Plant response rating, Bedstraw ([17]; Rate 250 g/ha, Postemergence): 6 | Plant response rating, Bedstraw [17, 25]: 0 | Plant response rating, Blackgrass ([18]; Rate 62 g/ha, Postemergence): 0 | Blackgrass plant response rating ([18]; Rate 62 g/ha): 0 | Plant response rating, Blackgrass ([18]; Rate 125 g/ha, Postemergence): 1 | Blackgrass plant response rating ([18]; Rate 125 g/ha): 0 | Plant response rating, Blackgrass ([18]; Rate 250 g/ha, Postemergence): 1 | Plant response rating, Blackgrass [18, 25]: 0 | Plant response rating, Crabgrass ([19]; Rate 62 g/ha, Postemergence): 1 | Crabgrass plant response rating ([19]; Rate 62 g/ha): 0 | Plant response rating, Crabgrass ([19]; Rate 125 g/ha, Postemergence): 1 | Crabgrass plant response rating ([19]; Rate 125 g/ha): 0 | Plant response rating, Crabgrass ([19]; Rate 250 g/ha, Postemergence): 1 | Plant response rating, Crabgrass [19, 25]: 1 | Plant response rating, B. signalgrass ([20]; Rate 62 g/ha, Postemergence): 1 | B. signalgrass plant response rating ([20]; Rate 62 g/ha): 0 | Plant response rating, B. signalgrass ([20]; Rate 125 g/ha, Postemergence): 1 | B. signalgrass plant response rating ([20]; Rate 125 g/ha): 0 | Plant response rating, B. signalgrass ([20]; Rate 250 g/ha, Postemergence): 2 | Plant response rating, B. signalgrass ([20]; Rate 250 g/ha, Postemergence as printed in head r139 (second section for compounds 26-50)): 1
